Source: patent US4977275A, “Pyrrole derivatives” (SS Pharmaceutical Co., Ltd., priority 1988, dated 1990)
Values after ≈ are worked out from the molar mass of the structure shown.

Key:
Type in all cases: cell-based
[1] = test system: Bacillus subtilis ATCC 6633; test: antimicrobial activity, minimum inhibitory concentration; conditions: ATCC6633
[2] = test system: Staphylococcus aureus FDA 209P; test: as above; conditions: FDA209P
[3] = test system: Candida albicans NHL 4019; test: as above; conditions: NHL4019
Candida albicans Yu-1200 = test: as above; conditions: YU1200
[4] = test system: Saccharomyces cerevisiae ATCC 9763; test: as above; conditions: ATCC9763
[5] = test system: Helminthosporium sesamum IAM 5012; test: as above; conditions: IAM5012
[6] = test system: Piricularia oryzae IAM 5016; test: microbe, parasite or virus in culture; conditions: read-out: Minimum inhibitory concentration (MIC)
[7] = test system: Debaryomyces kloeckeri IFO 0015; test: antimicrobial activity, minimum inhibitory concentration; conditions: IFO0015

## O=C(CCCl)Oc1ccccc1C(=O)c1[nH]c(Cl)c(Cl)c1I [Compound 9, 2-[2-(3-Chloropropionyloxy)benzoyl]-3-iodo-4,5-dichloropyrrole]
[1]
  MIC: < 0.2 µg/mL
[2]
  MIC: < 0.2 µg/mL
[3]
  MIC: 6.25 µg/mL (≈ 13.2 µM)
Candida albicans Yu-1200
  MIC: 6.25 µg/mL (≈ 13.2 µM)
[4]
  MIC: 12.5 µg/mL (≈ 26.5 µM)
[5]
  MIC: 6.25 µg/mL (≈ 13.2 µM)
[6]
  MIC: < 0.2 µg/mL
[7]
  MIC: 12.5 µg/mL (≈ 26.5 µM)

## CCCCCCC(=O)Oc1ccccc1C(=O)c1[nH]c(Cl)c(Cl)c1I [Compound 6, 2-(2-heptanoyloxybenzoyl)-3-iodo-4,5-dichloropyrrole]
[1]
  MIC: 0.39 µg/mL (≈ 0.789 µM)
[2]
  MIC: 0.39 µg/mL (≈ 0.789 µM)
[3]
  MIC: 12.5 µg/mL (≈ 25.3 µM)
Candida albicans Yu-1200
  MIC: 12.5 µg/mL (≈ 25.3 µM)
[4]
  MIC: 12.5 µg/mL (≈ 25.3 µM)
[5]
  MIC: 6.25 µg/mL (≈ 12.6 µM)
[6]
  MIC: < 0.2 µg/mL
[7]
  MIC: 12.5 µg/mL (≈ 25.3 µM)

## CCCCCCC(=O)Oc1ccc(F)cc1C(=O)c1[nH]c(Br)c(Br)c1Br [Compound 2, 2-(2-Heptanoyloxy-5-fluorobenzoyl)-3,4,5-tribromopyrrole]
[1]
  MIC: < 0.2 µg/mL
[2]
  MIC: < 0.2 µg/mL
[3]
  MIC: 12.5 µg/mL (≈ 22.6 µM)
Candida albicans Yu-1200
  MIC: 12.5 µg/mL (≈ 22.6 µM)
[4]
  MIC: 12.5 µg/mL (≈ 22.6 µM)
[5]
  MIC: 6.25 µg/mL (≈ 11.3 µM)
[6]
  MIC: < 0.2 µg/mL
[7]
  MIC: 12.5 µg/mL (≈ 22.6 µM)
